Reference: US20240025856A1, “1,2,3,4-TETRAHYDROQUINOLINE DERIVATIVES AS INHIBITORS OF THE YAP/TAZ-TEAD ACTIVATION FOR TREATING CANCER” (KATHOLIEKE UNIVERSITEIT LEUVEN, priority 2020, published 2024)

Tested on: YAP/TAZ-TEAD transcription
Assay: Reporter gene assay for measuring the inhibition of YAP/TAZ-TEAD transcription (TEAD-responsive element luciferase reporter in Hek293T cells)
Type: cell-based
Conditions: Homo sapiens, HEK-293T, 24 h, Hek293T cells transiently transfected with TEAD-responsive element luciferase reporter; 24 hours incubation
Method: Hek293T cells are cultured in DMEM supplemented with 10% fetal bovine serum, Sodium pyruvate, Sodium bicarbonate, L-glutamine. The cells are harvested and transiently transfected with TEAD-responsive element luciferase reporter. Transfected cells are plated in 384-wells plate containing pre-diluted compounds. After 24 hours incubation at 37° C./5% CO2, assay plates were cooled down to RT and levelled to an equal volume per well, prior to the addition of 25 uL luciferase substrate SteadyLite (Perkin Elmer)/well. The plate was shaken for 10 min at 600 rpm, centrifuged for 1 min at 500 rpm and measured with an Envision reader (PerkinElmer). The amount of relative light units produced by the TEAD reporter is used to calculated percent of inhibition. The percent of reporter inhibition was calculated in the presence of a positive control inhibitor (100% inhibition) versus a condition with the presence of the vehicle basal activity of the reporter (0% inhibition). The ability of a test compound to inhibit this activity was determined as: Percentage inhibition=[[…]((RLU determined in the presence of vehicle−RLU determined for sample with test compound present) divided by (RLU determined in the presence of vehicle−RLU determined for sample with positive control inhibitor))]*100
The activities of example compounds tested are depicted in the table below. The activity ranges A, B and C refer to IC50 values in the reporter gene assay as follows: “A”: IC50<1 μM; “B”: 1 μM≤IC50≤20 μM and “C”: IC50>20 μM; NT=not tested.

| SMILES | IC50 [nM] |
| --- | --- |
| CS(=O)(=O)CCNC1Cc2ccccc2N(c2ccc(C(F)(F)F)cc2)C1 (stereo not shown) [compound 049, N-(2-(methylsulfonyl)ethyl)-1-(4-(trifluoromethyl)phenyl)-1,2,3,4-tetrahydroquinolin-3-amine] | 1000 to 20000 |
| O=S1(=O)CCN1C1Cc2ccccc2N(c2ccc(C(F)(F)F)cc2)C1 (stereo not shown) [compound 050, 2-(1-(4-(trifluoromethyl)phenyl)-1,2,3,4-tetrahydroquinolin-3-yl)-1,2-thiazetidine-1,1-dioxide] | 1000 to 20000 |
| CNS(=O)(=O)CCNC1Cc2ccccc2N(c2ccc(C(F)(F)F)cc2)C1 (stereo not shown) [compound 051, N-methyl-2-((1-(4-(trifluoromethyl)phenyl)-1,2,3,4-tetrahydroquinolin-3-yl)amino)ethane-1-sulfonamide] | 1000 to 20000 |
| N#CCC(=O)NC1Cc2ccccc2N(c2ccc(C(F)(F)F)cc2)C1 (stereo not shown) [compound 052, 2-cyano-N-(1-(4-(trifluoromethyl)phenyl)-1,2,3,4-tetrahydroquinolin-3-yl)acetamide] | 1000 to 20000 |
| N#CCCNC1Cc2ccccc2N(c2ccc(C(F)(F)F)cc2)C1 (stereo not shown) [compound 053, 3-((1-(4-(trifluoromethyl)phenyl)-1,2,3,4-tetrahydroquinolin-3-yl)amino)propanenitrile] | 1000 to 20000 |
| N#CCNC1Cc2ccccc2N(c2ccc(C(F)(F)F)cc2)C1 (stereo not shown) [compound 054, 2-((1-(4-(trifluoromethyl)phenyl)-1,2,3,4-tetrahydroquinolin-3-yl)amino)acetonitrile] | 1000 to 20000 |
| CC(C)(C)OC(=O)NC1Cc2c(Br)cccc2N(c2ccc(C(F)(F)F)cc2)C1 (stereo not shown) [compound 055, tert-butyl (5-bromo-1-(4-(trifluoromethyl)phenyl)-1,2,3,4-tetrahydroquinolin-3-yl)carbamate] | > 20000 |
| C=CC(=O)NC1Cc2c(Br)cccc2N(c2ccc(C(F)(F)F)cc2)C1 (stereo not shown) [compound 058, N-(5-bromo-1-(4-(trifluoromethyl)phenyl)-1,2,3,4-tetrahydroquinolin-3-yl)acrylamide] | < 1000 |
| CCC(=O)NC1Cc2c(Cc3cccnc3)cccc2N(c2ccc(C(F)(F)F)cc2)C1 (stereo not shown) [compound 061, N-(5-(pyridin-3-ylmethyl)-1-(4-(trifluoromethyl)phenyl)-1,2,3,4-tetrahydroquinolin-3-yl)propionamide] | 1000 to 20000 |
| C=CC(=O)NC1Cc2c(Cc3cccc(C#N)c3)cccc2N(c2ccc(C(F)(F)F)cc2)C1 (stereo not shown) [compound 062, N-(5-(3-cyanobenzyl)-1-(4-(trifluoromethyl)phenyl)-1,2,3,4-tetrahydroquinolin-3-yl)acrylamide] | < 1000 |
| C=CC(=O)NC1Cc2c(Cc3cccc(F)c3)cccc2N(c2ccc(C(F)(F)F)cc2)C1 (stereo not shown) [compound 063, N-(5-(3-fluorobenzyl)-1-(4-(trifluoromethyl)phenyl)-1,2,3,4-tetrahydroquinolin-3-yl)acrylamide] | < 1000 |
| C=CC(=O)NC1Cc2cc(C)ccc2N(c2ccc(C(F)(F)F)cc2)C1 (stereo not shown) [compound 065, N-(6-methyl-1-(4-(trifluoromethyl)phenyl)-1,2,3,4-tetrahydroquinolin-3-yl)acrylamide] | < 1000 |
| C=CC(=O)NC1Cc2c(Cc3ccccc3)cccc2N(c2ccc(C(F)(F)F)cc2)C1 (stereo not shown) [compound 066, N-(5-benzyl-1-(4-(trifluoromethyl)phenyl)-1,2,3,4-tetrahydroquinolin-3-yl)acrylamide] | < 1000 |
| CCC(=O)NC1Cc2c(Cc3ccccc3)cccc2N(c2ccc(C(F)(F)F)cc2)C1 (stereo not shown) [compound 067, N-(5-benzyl-1-(4-(trifluoromethyl)phenyl)-1,2,3,4-tetrahydroquinolin-3-yl)propionamide] | 1000 to 20000 |
| C=CC(=O)NC1Cc2c(CN3CCOCC3)cccc2N(c2ccc(C(F)(F)F)cc2)C1 (stereo not shown) [compound 068, N-(5-(morpholinomethyl)-1-(4-(trifluoromethyl)phenyl)-1,2,3,4-tetrahydroquinolin-3-yl)acrylamide] | < 1000 |
| C=CC(=O)NC1Cc2c(Nc3ccccc3)cccc2N(c2ccc(C(F)(F)F)cc2)C1 (stereo not shown) [compound 069, N-(5-(phenylamino)-1-(4-(trifluoromethyl)phenyl)-1,2,3,4-tetrahydroquinolin-3-yl)acrylamide] | < 1000 |
| C=CC(=O)NC1Cc2c(Nc3cccnc3)cccc2N(c2ccc(C(F)(F)F)cc2)C1 (stereo not shown) [compound 070, N-(5-(pyridin-3-ylamino)-1-(4-(trifluoromethyl)phenyl)-1,2,3,4-tetrahydroquinolin-3-yl)acrylamide] | < 1000 |
| CCC(=O)NC1Cc2c(Nc3ccccc3)cccc2N(c2ccc(C(F)(F)F)cc2)C1 (stereo not shown) [compound 071, N-(5-(phenylamino)-1-(4-(trifluoromethyl)phenyl)-1,2,3,4-tetrahydroquinolin-3-yl)propionamide] | 1000 to 20000 |
| CCC(=O)NC1Cc2c(Nc3cccnc3)cccc2N(c2ccc(C(F)(F)F)cc2)C1 (stereo not shown) [compound 072, N-(5-(pyridin-3-ylamino)-1-(4-(trifluoromethyl)phenyl)-1,2,3,4-tetrahydroquinolin-3-yl)propionamide] | 1000 to 20000 |

| SMILES | IC50 [nM] |
| --- | --- |
| C=CC(=O)NC1Cc2c(NC(=O)OC(C)(C)C)cccc2N(c2ccc(C(F)(F)F)cc2)C1 (stereo not shown) [compound 074, tert-butyl (3-acrylamido-1-(4-(trifluoromethyl)phenyl)-1,2,3,4-tetrahydroquinolin-5-yl)carbamate] | < 1000 |
| C=CC(=O)NC1Cc2c(NC(C)=O)cccc2N(c2ccc(C(F)(F)F)cc2)C1 (stereo not shown) [compound 076, N-(5-acetamido-1-(4-(trifluoromethyl)phenyl)-1,2,3,4-tetrahydroquinolin-3-yl)acrylamide] | < 1000 |
| C=CC(=O)NC1Cc2c(C(=O)O)cccc2N(c2ccc(C(F)(F)F)cc2)C1 (stereo not shown) [compound 079, 3-acrylamido-1-(4-(trifluoromethyl)phenyl)-1,2,3,4-tetrahydroquinoline-5-carboxylic acid] | < 1000 |
| C=CC(=O)NC1Cc2cnccc2N(c2ccc(C(F)(F)F)cc2)C1 (stereo not shown) [compound 082, N-(1-(4-(trifluoromethyl)phenyl)-1,2,3,4-tetrahydro-1,6-naphthyridin-3-yl)acrylamide] | 1000 to 20000 |
| C=CC(=O)NCC1Cc2ccccc2N(c2ccccc2)C1 (stereo not shown) [compound 085, N-((1-phenyl-1,2,3,4-tetrahydroquinolin-3-yl)methyl)acrylamide] | < 1000 |
| C=CC(=O)NCC1Cc2ccccc2N(c2cccc(C(F)(F)F)c2)C1 (stereo not shown) [compound 086, N-((1-(3-(trifluoromethyl)phenyl)-1,2,3,4-tetrahydroquinolin-3-yl)methyl)acrylamide] | < 1000 |
| C=CC(=O)NCC1Cc2ccccc2N(c2ccc(C(C)C)cc2)C1 (stereo not shown) [compound 087, N-((1-(4-isopropylphenyl)-1,2,3,4-tetrahydroquinolin-3-yl)methyl)acrylamide] | < 1000 |
| C=CC(=O)NCC1Cc2ccccc2N(c2cccc(C(C)C)c2)C1 (stereo not shown) [compound 088, N-((1-(3-isopropylphenyl)-1,2,3,4-tetrahydroquinolin-3-yl)methyl)acrylamide] | < 1000 |
| C=CC(=O)NCC1Cc2ccccc2N(c2ccc(Cl)cc2)C1 (stereo not shown) [compound 089, N-((1-(4-chlorophenyl)-1,2,3,4-tetrahydroquinolin-3-yl)methyl)acrylamide] | < 1000 |
| C=CC(=O)NCC1Cc2ccccc2N(c2cccc(OC)c2)C1 (stereo not shown) [compound 090, N-((1-(3-methoxyphenyl)-1,2,3,4-tetrahydroquinolin-3-yl)methyl)acrylamide] | < 1000 |
| C=CC(=O)NCC1Cc2ccccc2N(c2ccc(OC)cc2)C1 (stereo not shown) [compound 091, N-((1-(4-methoxyphenyl)-1,2,3,4-tetrahydroquinolin-3-yl)methyl)acrylamide] | < 1000 |
| C=CC(=O)NCC1Cc2ccccc2N(c2ccc(-c3ccccc3)cc2)C1 (stereo not shown) [compound 092, N-((1-([1,1′-biphenyl]-4-yl)-1,2,3,4-tetrahydroquinolin-3-yl)methyl)acrylamide] | < 1000 |
| C=CC(=O)NCC1Cc2ccccc2N(c2cccc(-c3ccccc3)c2)C1 (stereo not shown) [compound 093, N-((1-([1,1′-biphenyl]-3-yl)-1,2,3,4-tetrahydroquinolin-3-yl)methyl)acrylamide] | > 20000 |
| C=CC(=O)NCC1Cc2ccccc2N(c2ccc(C(F)(F)F)nc2)C1 (stereo not shown) [compound 094, N-((1-(6-(trifluoromethyl)pyridin-3-yl)-1,2,3,4-tetrahydroquinolin-3-yl)methyl)acrylamide] | < 1000 |
| C=CC(=O)NCC1Cc2ccccc2N(c2ccc(C(F)(F)F)cn2)C1 (stereo not shown) [compound 095] | < 1000 |
| C=CC(=O)NCC1Cc2ccccc2N(c2ccnc(C(F)(F)F)c2)C1 (stereo not shown) [compound 096, N-((1-(2-(trifluoromethyl)pyridin-4-yl)-1,2,3,4-tetrahydroquinolin-3-yl)methyl)acrylamide] | < 1000 |
| C=CC(=O)NCC1Cc2ccccc2N(c2ccc(F)cc2)C1 (stereo not shown) [compound 097, N-((1-(4-fluorophenyl)-1,2,3,4-tetrahydroquinolin-3-yl)methyl)acrylamide] | < 1000 |
| CCC(=O)NCC1Cc2ccccc2N(c2ccc(C(F)(F)F)cc2)C1 (stereo not shown) [compound 098, N-((1-(4-(trifluoromethyl)phenyl)-1,2,3,4-tetrahydroquinolin-3-yl)methyl)propionamide] | < 1000 |
